Experimental findings from PubChem BioAssay (NCI) are described below.

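Where inhibition never reached the appropriate level, the endpoint shown equals the highest concentration tested. Otherwise, values were interpolated linearly from a five-concentration, 48-hour dose response in 96-well plates. GI50 = concentration required for 50% inhibition of growth. At the TGI there is no net growth.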

Test systems include T-47D breast; A549 NSCLC; OVCAR-4 ovarian; HCT-15 colon; MALME-3M melanoma; RXF 393 renal; MDA-MB-231 breast; NCI-H226 lung; U251 CNS; NCI/ADR-RES ovarian.
Common to all, as to experiment: NCI tumour cell line growth inhibition, 48 h

With `Cn1c(=O)c(Oc2ccc(F)cc2F)cc2cnc(N[C@@H]3CCOC3)nc21`, the GI50 with T-47D breast, in the assay with A549 NSCLC, in the assay on OVCAR-4 ovarian, in the assay on HCT-15 colon, in the assay with MALME-3M melanoma and with RXF 393 renal was over 25 µM throughout. Further, the GI50 with MDA-MB-231 breast, in the assay with NCI-H226 lung, in the assay on U251 CNS and with NCI/ADR-RES ovarian was over 25 µM throughout. Besides, the TGI in the assay on T-47D breast, in the assay on A549 NSCLC, in the assay with OVCAR-4 ovarian, in the assay on HCT-15 colon, with MALME-3M melanoma and in the assay with RXF 393 renal was over 25 µM throughout. In addition, the TGI in the assay with MDA-MB-231 breast, with NCI-H226 lung, with U251 CNS and in the assay with NCI/ADR-RES ovarian was over 25 µM each time.

With `O=C(Nc1cc(F)c(F)cc1C(=O)O)c1ccc(-n2ccnc2)nn1`, the GI50 was over 100 µM with T-47D breast; over 100 µM with A549 NSCLC; 65.6 µM in the assay on OVCAR-4 ovarian; over 100 µM in the assay with HCT-15 colon; over 100 µM in the assay with MALME-3M melanoma; 19.6 µM with RXF 393 renal. The GI50 in the assay on MDA-MB-231 breast, in the assay with NCI-H226 lung, in the assay on U251 CNS and in the assay with NCI/ADR-RES ovarian was over 100 µM throughout. For the same compound, the TGI in the assay with T-47D breast, in the assay with A549 NSCLC, with OVCAR-4 ovarian, with HCT-15 colon, with MALME-3M melanoma and in the assay with RXF 393 renal was over 100 µM each time. Further, the TGI in the assay with MDA-MB-231 breast, in the assay with NCI-H226 lung, in the assay on U251 CNS and with NCI/ADR-RES ovarian was over 100 µM each time.

As to `CS(=O)(=O)c1cccc(Nc2ncc3cc(-c4ccccc4Cl)ccc3n2)c1`, the GI50 is 1.1 µM in the assay on T-47D breast; 1.78 µM in the assay on A549 NSCLC; 1.51 µM in the assay on OVCAR-4 ovarian; 0.821 µM in the assay on HCT-15 colon; 1.22 µM in the assay on MALME-3M melanoma; 1.05 µM in the assay on RXF 393 renal. The GI50 with MDA-MB-231 breast was 1.37 µM; with NCI-H226 lung it was 2.55 µM; in the assay on U251 CNS, 1.68 µM; with NCI/ADR-RES ovarian, 1.24 µM. Also, the TGI is over 33.3 µM in the assay on T-47D breast; over 33.3 µM with A549 NSCLC; over 33.3 µM in the assay with OVCAR-4 ovarian; over 33.3 µM in the assay with HCT-15 colon; 9.84 µM in the assay with MALME-3M melanoma; 6.24 µM in the assay on RXF 393 renal. Further, the TGI with MDA-MB-231 breast was 12.2 µM; with NCI-H226 lung it was 21.5 µM; with U251 CNS it was over 33.3 µM; with NCI/ADR-RES ovarian it was 17.7 µM.

As for `Cc1ccc(-c2nc(-c3nccc4ccccc34)oc2-c2ccccc2)cc1`, the TGI with T-47D breast, with A549 NSCLC, in the assay with OVCAR-4 ovarian, in the assay with HCT-15 colon, in the assay with MALME-3M melanoma and in the assay on RXF 393 renal was over 100 µM each time. In addition, the TGI in the assay on MDA-MB-231 breast, in the assay on NCI-H226 lung, in the assay with U251 CNS and in the assay on NCI/ADR-RES ovarian was over 100 µM throughout.

For the compound `O=C(Nc1cc(Cl)ccc1O)c1ccccc1Nc1ccnc(C(F)(F)F)c1`, the GI50 with T-47D breast was 2.47 µM; in the assay on A549 NSCLC, 3.38 µM; with OVCAR-4 ovarian, 2.29 µM; with HCT-15 colon it was 3.55 µM; with MALME-3M melanoma, 2.2 µM; in the assay on RXF 393 renal, 2.77 µM. Also, the GI50 in the assay with MDA-MB-231 breast is 2.12 µM; with NCI-H226 lung it was 2.11 µM; in the assay on U251 CNS it was 4.91 µM; with NCI/ADR-RES ovarian, 3.06 µM. In addition, the TGI in the assay on T-47D breast was 8.5 µM; in the assay on A549 NSCLC, 13.1 µM; in the assay on OVCAR-4 ovarian it was 13.2 µM; with HCT-15 colon it was over 100 µM; in the assay on MALME-3M melanoma, 7.39 µM; in the assay on RXF 393 renal, 10.6 µM. For the same compound, the TGI in the assay with MDA-MB-231 breast is 5.19 µM; with NCI-H226 lung, 9.17 µM; in the assay on U251 CNS, over 100 µM; with NCI/ADR-RES ovarian, 9.29 µM.

For the compound `C#CC1(O)C(COP(=O)(O)OCC2OC(n3cc(F)c(=O)[nH]c3=O)CC2O)OC(n2ccc(N)nc2=O)C1O` (stereo unspecified), the GI50 in the assay with T-47D breast was under 0.0238 µM; in the assay with A549 NSCLC, under 0.01 µM; in the assay on HCT-15 colon, under 0.0166 µM; with MALME-3M melanoma, under 0.0118 µM; with RXF 393 renal it was under 0.0387 µM; with MDA-MB-231 breast it was under 0.0133 µM. Besides, the GI50 is under 0.01 µM with NCI-H226 lung, under 0.0273 µM in the assay on U251 CNS and under 0.0115 µM with NCI/ADR-RES ovarian. Besides, the TGI in the assay with A549 NSCLC was over 100 µM; with HCT-15 colon, over 100 µM; in the assay on MALME-3M melanoma, 0.444 µM; with RXF 393 renal, 1.48 µM; with MDA-MB-231 breast it was 0.315 µM; in the assay on NCI-H226 lung, over 100 µM. The TGI with U251 CNS is over 100 µM; in the assay on NCI/ADR-RES ovarian, 16 µM.

Regarding `CC(=O)Nc1cc2cc(NS(=O)(=O)c3ccc(Cl)c(Cl)c3)ccc2oc1=O`, the TGI in the assay with T-47D breast is 43.5 µM; in the assay with A549 NSCLC, over 100 µM; in the assay with OVCAR-4 ovarian, over 100 µM; with HCT-15 colon, over 100 µM; with RXF 393 renal it was 25.6 µM; in the assay with MDA-MB-231 breast, 46.2 µM. The TGI in the assay on NCI-H226 lung was over 100 µM; with U251 CNS it was 45.5 µM; in the assay on NCI/ADR-RES ovarian, over 100 µM.
